Measurements published in PubChem BioAssay AID2060900 (Molecular Pharmacology Branch, DTP, NCI, 2025).
Blank lines part the entries; values can stand above or below the compound they belong to.

Tested on: 521955-158-R2-J5-PDC complex spheroids, viability
Assay: Anticancer human tumor 521955-158-R2-J5-PDC patient-derived pancreatic carcinoma cell line growth inhibition [RAS]
Conditions: for viability, T/C: stronger effect = lower value
Excerpt: RAS pathway inhibitors in Combinations in Complex Spheroids
A high-throughput screen of multi-cell type tumor spheroids was designed to identify active combinations of RAS pathway inhibitors and targeted small molecules. Complex spheroids include a stromal component modeled by human endothelial cells (HUVEC) and fibroblasts modeled by human mesenchymal stem cells (MSCs). The concentration ranges selected for each drug and investigational agent were based upon clinically achievable concentrations if the clinical Cmax of the agent was known.
Compounds. The drugs and investigational agents: abemaciclib (NSC768073), cobimetinib (NSC768068), divarasib (GDC6063, NSC841802), docetaxel (NSC628503), GDC-1971 (RLY-1971, NSC841576), gemcitabine (NSC613327), inavolisib (NSC800729), ipatasertib (NSC767898), KB-0742 (NSC834161), MRTX-1133 (NSC836407), osimertinib (NSC779217), RMC-4630 (NSC839698), RMC-6236 (NSC851965), RMC-6291 (NSC852671), Ro-3306 (NSC812927), sapanisertib (NSC764658), SN-38 (NSC673596), staurosporine (NSC755774), SY5609 (NSC837396), and tovorafenib (DAY101, NSC766906), were obtained from the National Cancer Institute (NCI) Developmental Therapeutics Program Chemical Repository. The FDA-approved anticancer drug set is available from the NCI Developmental Therapeutics Program. […] The stock solutions were prepared in dimethyl sulfoxide (DMSO, Sigma-Aldrich, St. Louis, MO, cat. D2650) at 800-fold the tested concentration and stored at -70 degrees C prior to their use. All drugs and investigational agents were tested over a range starting from a high concentration at or near the clinical Cmax and decreasing in half-log increments. If the clinical Cmax for an agent had not been determined, the highest concentration tested was 10 microM.
Cell Culture. All cells were maintained in an incubator at 37 degrees C and 5% CO2 with 95% humidity. The PDC lines were cultured according to standard operating procedures established by the NCI PDMR. All PDCs were thawed and cultured in Matrigel-coated flasks prepared with a working solution of 1X Ham's F-12 nutrient mix, without supplementation (Invitrogen, Waltham, MA, cat. 11765054), 100 U/mL penicillin-streptomycin (Invitrogen, cat. 15140122), and 2.5% Matrigel (Corning Inc., Corning, NY, cat. 354248) for the first three passages. The 362531-283-R-J2-PDC and 782815-120-R-J1-PDC lines were cultured in 6C/Colon 1B media, which includes advanced DMEM/F-12 (Thermo Fisher Scientific, cat. 12634028), 10 mM HEPES (Thermo Fisher Scientific, cat. 15630080), 1X GlutaMAX supplement (Thermo Fisher Scientific, cat. 35050061), 0.1 mg/mL primocin (InvivoGen, San Diego, CA, cat. ant-pm-2), 10% defined fetal bovine serum, heat inactivated (HyClone Laboratories Inc., Logan, UT, cat. SH30070.03HI), 50% L-WRN conditioned media (ATCC, cat. CRL-3276), 1.25 mM N-Acetyl-L-cysteine (Sigma-Aldrich, cat. A9165), 10 mM nicotinamide (Sigma-Aldrich, cat. N0636), 1X B-27 supplement (Thermo Fisher Scientific, cat. 17504044), 1X N-2 supplement (Thermo Fisher Scientific, cat. 17502048), 50 ng/mL human EGF (Thermo Fisher Scientific, cat. PHG0311), and 10 microM Y-27632 dihydrochloride (Tocris Bioscience, cat. 1254). The K12877-001-R-J1-PDC line was cultured in 6I media, which includes all 6C/Colon 1B media plus 10 ng/mL human FGF-10 (PeproTech, cat. 100-26), 1 ng/mL human FGF-2 (PeproTech, cat. 100-18B), 1 µM prostaglandin E2 (Tocris Bioscience, cat. 2296), […] hydrocortisone (Sigma-Aldrich, cat. H4001), and […] bovine insulin (Sigma-Aldrich, cat. I6634). The K86415-001-R-J1-PDC line was cultured in 6D media, which includes all 6C/Colon 1B media components minus the L-WRN conditioned media. The 485176-168-R4-J1-PDC was cultured in PANC media, which includes all 6C/Colon 1B media plus 100 ng/mL human FGF-10 (PeproTech, cat. 100-26), 500 nM SB-431542 (Selleckchem, cat. S1067), and 10 nM gastrin (Tocris Bioscience, cat. 3006). […]

[1] = curve of first compound, second compound 0.0316 µM
[2] = curve of first compound, second compound 0.1 µM
[3] = curve of first compound, second compound 0.316 µM
[4] = curve of first compound, second compound 1 µM
[5] = curve of first compound, second compound 3.16 µM
[6] = curve of first compound, second compound 10 µM
[7] = second compound 0.0316 µM, first compound 0.00316 µM
[8] = second compound 0.0316 µM, first compound 0.01 µM
[9] = second compound 0.0316 µM, first compound 0.0316 µM
[10] = second compound 0.0316 µM, first compound 0.1 µM
[11] = second compound 0.0316 µM, first compound 0.316 µM
[12] = second compound 0.0316 µM, first compound 1 µM
[13] = second compound 0.1 µM, first compound 0.00316 µM
[14] = second compound 0.1 µM, first compound 0.01 µM
[15] = second compound 0.1 µM, first compound 0.0316 µM
[16] = second compound 0.1 µM, first compound 0.1 µM
[17] = second compound 0.1 µM, first compound 0.316 µM
[18] = second compound 0.1 µM, first compound 1 µM
[19] = second compound 0.316 µM, first compound 0.00316 µM
[20] = second compound 0.316 µM, first compound 0.01 µM
[21] = second compound 0.316 µM, first compound 0.0316 µM
[22] = second compound 0.316 µM, first compound 0.1 µM
[23] = second compound 0.316 µM, first compound 0.316 µM
[24] = second compound 0.316 µM, first compound 1 µM
[25] = second compound 1 µM, first compound 0.00316 µM
[26] = second compound 1 µM, first compound 0.01 µM
[27] = second compound 1 µM, first compound 0.0316 µM
[28] = second compound 1 µM, first compound 0.1 µM
[29] = second compound 1 µM, first compound 0.316 µM
[30] = second compound 1 µM, first compound 1 µM
[31] = second compound 3.16 µM, first compound 0.00316 µM
[32] = second compound 3.16 µM, first compound 0.01 µM
[33] = second compound 3.16 µM, first compound 0.0316 µM
[34] = second compound 3.16 µM, first compound 0.1 µM
[35] = second compound 3.16 µM, first compound 0.316 µM
[36] = second compound 3.16 µM, first compound 1 µM
[37] = second compound 10 µM, first compound 0.00316 µM
[38] = second compound 10 µM, first compound 0.01 µM
[39] = second compound 10 µM, first compound 0.0316 µM
[40] = second compound 10 µM, first compound 0.1 µM
[41] = second compound 10 µM, first compound 0.316 µM
[42] = second compound 10 µM, first compound 1 µM
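Also: compound exposure lasted seven days before the viability read.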
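For viability, T/C in this document: spheroids also contain HUVEC endothelial cells and mesenchymal stem cells as stroma.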

IC50 (compound alone, run of 06/10/2024): > 1000 nM | IC50 (curve of compound): > 1000 nM
SMILES: C=CC(=O)N1CCN(c2nc(OCC3CCCN3C)nc3c(F)c(-c4nc(N)cc(C)c4C(F)(F)F)c(Cl)cc23)C(C)C1 (stereo not drawn)

IC50 [1]: 39.2 nM | IC50 [2]: 217 nM | IC50 [3]: 47.1 nM | IC50 [4]: < 3.16 nM | IC50 [5]: < 3.16 nM | IC50 [6]: < 3.16 nM
SMILES: C=CC(=O)Nc1cc(Nc2nccc(-c3cn(C)c4ccccc34)n2)c(OC)cc1N(C)CCN(C)C + C#Cc1c(F)ccc2cc(O)cc(-c3ncc4c(N5CC6CCC(C5)N6)nc(OCC56CCCN5CC(F)C6)nc4c3F)c12
viability, T/C [7]: 65.3% | viability, T/C [8]: 56% | viability, T/C [9]: 52.8% | viability, T/C [10]: 43.5% | viability, T/C [11]: 38.3% | viability, T/C [12]: 29.6% | viability, T/C [13]: 46% | viability, T/C [14]: 59.9% | viability, T/C [15]: 49.7% | viability, T/C [16]: 59.8% | viability, T/C [17]: 46.7% | viability, T/C [18]: 22.9% | viability, T/C [19]: 51% | viability, T/C [20]: 58.8% | viability, T/C [21]: 47.1% | viability, T/C [22]: 48.6% | viability, T/C [23]: 34.5% | viability, T/C [24]: 22.6% | viability, T/C [25]: 46.8% | viability, T/C [26]: 48.3% | viability, T/C [27]: 51.1% | viability, T/C [28]: 43.4% | viability, T/C [29]: 34.4% | viability, T/C [30]: 17.8% | viability, T/C [31]: 43% | viability, T/C [32]: 53.4% | viability, T/C [33]: 42.5% | viability, T/C [34]: 49.9% | viability, T/C [35]: 27.8% | viability, T/C [36]: 15% | viability, T/C [37]: 32.5% | viability, T/C [38]: 43.9% | viability, T/C [39]: 32.2% | viability, T/C [40]: 34.2% | viability, T/C [41]: 26.1% | viability, T/C [42]: 3.73%

IC50 [1]: 55.4 nM | IC50 [2]: < 31.6 nM | IC50 [3]: < 31.6 nM | IC50 [4]: < 31.6 nM | IC50 [5]: < 31.6 nM | IC50 [6]: < 31.6 nM
SMILES: CC(Nc1ccc2c(c1)OCCn1cc(N3C(=O)OCC3C(F)F)nc1-2)C(N)=O (stereo not drawn) + C#Cc1c(F)ccc2cc(O)cc(-c3ncc4c(N5CC6CCC(C5)N6)nc(OCC56CCCN5CC(F)C6)nc4c3F)c12
viability, T/C [9]: 60.7% | viability, T/C [10]: 37.6% | viability, T/C [11]: 28.7% | viability, T/C [12]: 17.1% | viability, T/C (second compound 0.0316 µM, first compound 3.16 µM): 12.9% | viability, T/C (second compound 0.0316 µM, first compound 10 µM): 11.9% | viability, T/C [15]: 46.9% | viability, T/C [16]: 31.9% | viability, T/C [17]: 24.3% | viability, T/C [18]: 16% | viability, T/C (second compound 0.1 µM, first compound 3.16 µM): 13.6% | viability, T/C (second compound 0.1 µM, first compound 10 µM): 11.3% | viability, T/C [21]: 48.1% | viability, T/C [22]: 35.1% | viability, T/C [23]: 18.7% | viability, T/C [24]: 16% | viability, T/C (second compound 0.316 µM, first compound 3.16 µM): 10.8% | viability, T/C (second compound 0.316 µM, first compound 10 µM): 10.2% | viability, T/C [27]: 36% | viability, T/C [28]: 28.7% | viability, T/C [29]: 18.2% | viability, T/C [30]: 16.7% | viability, T/C (second compound 1 µM, first compound 3.16 µM): 11.7% | viability, T/C (second compound 1 µM, first compound 10 µM): 8.56% | viability, T/C [33]: 32.7% | viability, T/C [34]: 25.3% | viability, T/C [35]: 16.3% | viability, T/C [36]: 11% | viability, T/C (second compound 3.16 µM, first compound 3.16 µM): 8.73% | viability, T/C (second compound 3.16 µM, first compound 10 µM): 6.29% | viability, T/C [39]: 26.5% | viability, T/C [40]: 16.8% | viability, T/C [41]: 8.86% | viability, T/C [42]: 4.7% | viability, T/C (second compound 10 µM, first compound 3.16 µM): 2.91% | viability, T/C (second compound 10 µM, first compound 10 µM): 1.54%

IC50 [1]: 13.9 nM | IC50 [2]: 9.71 nM | IC50 [3]: 5.09 nM | IC50 [4]: < 3.16 nM | IC50 [5]: < 3.16 nM | IC50 [6]: < 3.16 nM
SMILES: O=C(c1ccc(F)c(F)c1Nc1ccc(I)cc1F)N1CC(O)([C@@H]2CCCCN2)C1 + C#Cc1c(F)ccc2cc(O)cc(-c3ncc4c(N5CC6CCC(C5)N6)nc(OCC56CCCN5CC(F)C6)nc4c3F)c12
viability, T/C [7]: 57.3% | viability, T/C [8]: 53% | viability, T/C [9]: 43.3% | viability, T/C [10]: 35.2% | viability, T/C [11]: 23.4% | viability, T/C [12]: 15.4% | viability, T/C [13]: 54.5% | viability, T/C [14]: 54.2% | viability, T/C [15]: 34.3% | viability, T/C [16]: 29.3% | viability, T/C [17]: 20.1% | viability, T/C [18]: 15% | viability, T/C [19]: 51.5% | viability, T/C [20]: 47.6% | viability, T/C [21]: 38.4% | viability, T/C [22]: 36% | viability, T/C [23]: 19.1% | viability, T/C [24]: 17% | viability, T/C [25]: 44.6% | viability, T/C [26]: 43% | viability, T/C [27]: 38.6% | viability, T/C [28]: 23.2% | viability, T/C [29]: 14.4% | viability, T/C [30]: 12.4% | viability, T/C [31]: 43.9% | viability, T/C [32]: 41.9% | viability, T/C [33]: 27% | viability, T/C [34]: 18.4% | viability, T/C [35]: 10.9% | viability, T/C [36]: 7.26% | viability, T/C [37]: 41.3% | viability, T/C [38]: 29.1% | viability, T/C [39]: 27.2% | viability, T/C [40]: 15.3% | viability, T/C [41]: 2.76% | viability, T/C [42]: 2.89%
